Results from US7420056B2, “Substituted bicyclic imidazo-3-ylamine compounds” (Gruenenthal GmbH, priority 2004, dated 2008).
Where a name gives a salt, the structure may show the parent alone.

These compounds were tested against mGluR5 receptor (Sus scrofa, UniProt I3LUI7) (assay: Affinity for the mGluR5 receptor: inhibition of 3[H]-MPEP binding in pig brain homogenate). Conditions: 10 μM compound, 5 nM 3[H]-MPEP, read-out: mGluR5 receptor inhibition of ^3[H]-MPEP binding [10 μM] in % at a concentration of the example compounds of 10 μM.
Chain of mGluR5 receptor (I3LUI7 19-1212): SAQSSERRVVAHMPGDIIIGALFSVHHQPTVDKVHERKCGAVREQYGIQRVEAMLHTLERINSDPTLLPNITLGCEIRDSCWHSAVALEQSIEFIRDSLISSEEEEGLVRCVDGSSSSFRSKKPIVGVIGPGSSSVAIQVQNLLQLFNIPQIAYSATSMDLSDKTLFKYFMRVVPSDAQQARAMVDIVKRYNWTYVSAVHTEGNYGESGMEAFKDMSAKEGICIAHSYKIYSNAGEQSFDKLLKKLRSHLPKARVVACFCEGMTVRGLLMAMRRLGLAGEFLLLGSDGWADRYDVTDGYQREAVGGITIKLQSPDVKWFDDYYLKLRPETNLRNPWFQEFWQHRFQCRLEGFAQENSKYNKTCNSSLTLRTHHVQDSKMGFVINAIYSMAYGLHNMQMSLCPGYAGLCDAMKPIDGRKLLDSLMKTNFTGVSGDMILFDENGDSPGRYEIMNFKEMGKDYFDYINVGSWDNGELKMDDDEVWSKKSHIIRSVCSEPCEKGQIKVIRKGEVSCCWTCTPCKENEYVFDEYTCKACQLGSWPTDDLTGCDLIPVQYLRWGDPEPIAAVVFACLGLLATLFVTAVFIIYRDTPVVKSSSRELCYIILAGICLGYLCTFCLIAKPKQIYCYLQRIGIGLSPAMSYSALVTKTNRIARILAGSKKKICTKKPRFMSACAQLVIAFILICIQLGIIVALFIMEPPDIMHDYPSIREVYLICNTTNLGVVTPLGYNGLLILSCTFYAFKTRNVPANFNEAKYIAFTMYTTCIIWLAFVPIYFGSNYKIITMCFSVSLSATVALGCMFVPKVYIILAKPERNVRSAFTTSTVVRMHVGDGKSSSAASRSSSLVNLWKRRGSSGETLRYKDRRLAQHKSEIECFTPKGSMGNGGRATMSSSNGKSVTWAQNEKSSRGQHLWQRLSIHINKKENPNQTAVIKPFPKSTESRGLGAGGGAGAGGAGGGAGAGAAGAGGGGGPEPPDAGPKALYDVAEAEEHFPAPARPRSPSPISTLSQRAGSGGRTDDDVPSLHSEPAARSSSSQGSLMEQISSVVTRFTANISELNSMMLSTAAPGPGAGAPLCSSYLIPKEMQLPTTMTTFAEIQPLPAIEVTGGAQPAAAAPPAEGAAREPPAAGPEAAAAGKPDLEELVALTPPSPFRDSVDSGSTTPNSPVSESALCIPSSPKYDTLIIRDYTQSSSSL
Summary of the method: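 Test compounds were screened at 10 μM for displacement of 5 nM [3H]-MPEP from pig brain homogenate (450 μg protein, pH 8.0 Hepes buffer) over 60 min at room temperature. After filtration, scintillation counting gave the read-out. 10 μM unlabelled MPEP set nonspecific binding.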

Question: With C(#Cc1csc(-c2nc3c(OCc4ccccc4)cccn3c2NC2CCCC2)c1)c1ccccc1 [Example 219, 8-(benzyloxy)-N-cyclopentyl-2-(4-(phenylethynyl)thiophen-2-yl)imidazo[1,2-a]pyridin-3-amine] as the compound, how does the inhibition at 10 µM read?
Answer: 33%

Question: Cc1cc(Br)c2nc(-c3ccc(C#Cc4ccccn4)s3)c(NC3CCCC3)n2c1 [Example 92, 8-bromo-N-cyclopentyl-6-methyl-2-(5-(pyridin-2-ylethynyl)thiophen-2-yl)imidazo[1,2-a]pyridin-3-amine] was tested. Which inhibition at 10 µM did it give?
Answer: 82%

Question: CC(C)(C)Nc1c(-c2ccc(C#Cc3ccccn3)cc2)nc2ccccn12 [Example 264, N-tert-butyl-2-(4-(pyridin-2-ylethynyl)phenyl)imidazo[1,2-a]pyridin-3-amine] was tested. Which inhibition at 10 µM did it give?
Answer: 83%

Question: For CC(C)(C)Nc1c(-c2ccc(C#Cc3ccccn3)o2)nc2ccccn12 [Example 285, N-tert-butyl-2-(5-(pyridin-2-ylethynyl)furan-2-yl)imidazo[1,2-a]pyridin-3-amine], which inhibition at 10 µM is on record?
Answer: 88%

Question: Which inhibition at 10 µM does the source give for Cc1cc(Br)cn2c(NCCc3ccc(Cl)cc3)c(-c3cc(C#Cc4ccccc4)cs3)nc12 [Example 227, 6-bromo-N-(4-chlorophenethyl)-8-methyl-2-(4-(phenylethynyl)thiophen-2-yl)imidazo[1,2-a]pyridin-3-amine] here?
Answer: 61%

Question: With Cc1ccn2c(NC(C)(C)CC(C)(C)C)c(-c3ccc(C#Cc4ccccn4)s3)nc2c1 [Example 275, 7-methyl-2-(5-(pyridin-2-ylethynyl)thiophen-2-yl)-N-(2,4,4-trimethylpentan-2-yl)imidazo[1,2-a]pyridin-3-amine] as the compound, how does the inhibition at 10 µM read?
Answer: 85%

Question: C(#Cc1csc(-c2nc3ccccn3c2NCC2CCCCC2)c1)c1ccccc1 [Example 208, N-(cyclohexylmethyl)-2-(4-(phenylethynyl)thiophen-2-yl)imidazo[1,2-a]pyridin-3-amine] was tested. Which inhibition at 10 µM did it give?
Answer: 57%

Question: Which inhibition at 10 µM does the source give for COc1ccc(CNc2c(-c3ccc(C#Cc4ccccc4)s3)nc3c(C)cccn23)cc1 [Example 13, (4-methoxy-benzyl)-[8-methyl-2-(5-phenylethynyl-thiophen-2-yl)-imidazo[1,2-a]pyridin-3-yl]-amine] here?
Answer: 96%

Question: Which inhibition at 10 µM does the source give for Cc1ccn2c(NC(C)(C)C)c(-c3cccc(C#Cc4ccccn4)c3)nc2c1 [Example 276, N-tert-butyl-7-methyl-2-(3-(pyridin-2-ylethynyl)phenyl)imidazo[1,2-a]pyridin-3-amine] here?
Answer: 93%

Question: For Cc1ccc2nc(-c3ccc(C#Cc4ccccc4)s3)c(NCC3CCCCC3)n2c1 [Example 3, cyclohexylmethyl-[6-methyl-2-(5-phenylethynyl-thiophen-2-yl)-imidazo[1,2-a]pyridin-3-yl]-amine], which inhibition at 10 µM is on record?
Answer: 95%

Question: With Cc1cc(C)n2c(NCc3ccccc3Cl)c(-c3ccc(C#Cc4ccccc4)s3)nc2c1 [Example 32, (2-chloro-benzyl)-[5,7-dimethyl-2-(5-phenylethynyl-thiophen-2-yl)-imidazo[1,2-a]pyridin-3-yl]-amine] as the compound, how does the inhibition at 10 µM read?
Answer: 98%

Question: For C(#Cc1csc(-c2nc3cnccn3c2NCCc2ccccc2)c1)c1ccccc1 [Example 201, N-phenethyl-2-(4-(phenylethynyl)thiophen-2-yl)imidazo[1,2-a]pyrazin-3-amine], which inhibition at 10 µM is on record?
Answer: 55%

Question: With Cc1cccn2c(NCC3CCCCC3)c(-c3ccc(C#Cc4ccccc4)s3)nc12 [Example 5, cyclohexylmethyl-[8-methyl-2-(5-phenylethynyl-thiophen-2-yl)-imidazo[1,2-a]pyridin-3-yl]-amine] as the compound, how does the inhibition at 10 µM read?
Answer: 100%

Question: For COc1ccccc1CNc1c(-c2ccc(C#Cc3ccccc3)s2)nc2cc(C)ccn12 [Example 37, (2-methoxy-benzyl)-[7-methyl-2-(5-phenylethynyl-thiophen-2-yl)-imidazo[1,2-a]pyridin-3-yl]-amine], which inhibition at 10 µM is on record?
Answer: 85%

Question: Which inhibition at 10 µM does the source give for CC(C)c1ccn2c(NC(C)(C)C)c(-c3ccc(C#Cc4ccccn4)cc3)nc2c1 [Example 307, N-tert-butyl-7-isopropyl-2-(4-(pyridin-2-ylethynyl)phenyl)imidazo[1,2-a]pyridin-3-amine] here?
Answer: 88%

Question: Which inhibition at 10 µM does the source give for COc1ccc(CNc2c(-c3ccc(C#Cc4ccccc4)s3)nc3c(OCc4ccccc4)cccn23)cc1 [Example 15, [8-benzyloxy-2-(5-phenylethynyl-thiophen-2-yl)-imidazo[1,2-a]pyridin-3-yl]-(4-methoxy-benzyl)-amine] here?
Answer: 98%

Question: Which inhibition at 10 µM does the source give for CCc1ccn2c(Nc3ccccc3F)c(-c3ccc(C#Cc4ccccc4)s3)nc2c1 [Example 48, [7-ethyl-2-(5-phenylethynyl-thiophen-2-yl)-imidazo[1,2-a]pyridin-3-yl]-(2-fluoro-phenyl)-amine] here?
Answer: 82%

Question: How did the inhibition at 10 µM turn out when Cc1ccc2nc(-c3ccc(C#Cc4ccccn4)s3)c(NC3CCCCC3)n2c1 [Example 269, N-cyclohexyl-6-methyl-2-(5-(pyridin-2-ylethynyl)thiophen-2-yl)imidazo[1,2-a]pyridin-3-amine] was run?
Answer: 94%

Question: Which inhibition at 10 µM does the source give for Cc1nc(C#Cc2ccccc2)ccc1-c1nc2ccccn2c1NC1CCCC1 [Example 265, N-cyclopentyl-2-(2-methyl-6-(phenylethynyl)pyridin-3-yl)imidazo[1,2-a]pyridin-3-amine] here?
Answer: 68%

Question: COc1ccc(CNc2c(-c3ccc(C#Cc4ccccc4)s3)nc3cccc(C)n23)cc1 [Example 10, (4-methoxy-benzyl)-[5-methyl-2-(5-phenylethynyl-thiophen-2-yl)-imidazo[1,2-a]pyridin-3-yl]-amine] was tested. Which inhibition at 10 µM did it give?
Answer: 95%

Question: How did the inhibition at 10 µM turn out when CC(C)(C)CC(C)(C)Nc1c(-c2ccc(C#Cc3ccccn3)o2)nc2cnccn12 [Example 248, 2-(5-(pyridin-2-ylethynyl)furan-2-yl)-N-(2,4,4-trimethylpentan-2-yl)imidazo[1,2-a]pyrazin-3-amine] was run?
Answer: 68%

Question: For Nc1c(-c2ccc(C#Cc3ccccc3)s2)nc2cnccn12 [Example 83, 2-(5-phenylethynyl-thiophen-2-yl)-imidazo[1,2-a]pyrazin-3-ylamine], which inhibition at 10 µM is on record?
Answer: 35%

Question: For Cc1cccc(C#Cc2cccc(-c3nc4cnccn4c3NC3CCCCC3)c2)n1 [Example 251, N-cyclohexyl-2-(3-((6-methylpyridin-2-yl)ethynyl)phenyl)imidazo[1,2-a]pyrazin-3-amine], which inhibition at 10 µM is on record?
Answer: 80%

Same assay, conditions: 3[H]-MPEP binding

Question: Which IC50 does the source give for CNc1cccc(C#Cc2ccc(-c3nc4cnccn4c3NC(C)(C)C)s2)c1 [Example 160, N-tert-butyl-2-(5-((3-(methylamino)phenyl)ethynyl)thiophen-2-yl)imidazo[1,2-a]pyrazin-3-amine hydrochloride] here?
Answer: 94 nM

Question: Which IC50 does the source give for COc1ccccc1C#Cc1ccc(-c2nc3cnccn3c2NC(C)(C)C)s1 [Example 112, N-tert-butyl-2-(5-((2-methoxyphenyl)ethynyl)thiophen-2-yl)imidazo[1,2-a]pyrazin-3-amine hydrochloride] here?
Answer: 7520 nM

Question: CC(C)(C)Nc1c(-c2ccc(C#Cc3ccccc3)s2)nc2ccc3ccccc3n12 [Example 115, N-tert-butyl-2-(5-(phenylethynyl)thiophen-2-yl)imidazo[1,2-a]quinolin-1-amine] was tested. Which IC50 did it give?
Answer: 7740 nM

Question: With CCCCCNc1c(-c2ccc(C#Cc3ccccc3)s2)nc2cnccn12 [Example 72, pentyl-[2-(5-phenylethynyl-thiophen-2-yl)-imidazo[1,2-a]pyrazin-3-yl]-amine] as the compound, how does the IC50 read?
Answer: 5340 nM

Question: With COCc1cccc(C#Cc2ccc(-c3nc4ccccn4c3NC(C)(C)C)s2)c1 [Example 346, N-tert-butyl-2-(5-((3-(methoxymethyl)phenyl)ethynyl)thiophen-2-yl)imidazo[1,2-a]pyridin-3-amine] as the compound, how does the IC50 read?
Answer: 670 nM

Question: How did the IC50 turn out when COc1cccc(C#Cc2ccc(-c3nc4cnccn4c3NC(C)(C)C)s2)n1 [Example 168, N-tert-butyl-2-(5-((6-methoxypyridin-2-yl)ethynyl)thiophen-2-yl)imidazo[1,2-a]pyrazin-3-amine] was run?
Answer: 640 nM

Question: How did the IC50 turn out when CC(C)(C)Nc1c(-c2ccc(C#Cc3ccc(F)cn3)s2)nc2cnccn12 [Example 169, N-tert-butyl-2-(5-((5-fluoropyridin-2-yl)ethynyl)thiophen-2-yl)imidazo[1,2-a]pyrazin-3-amine hydrochloride] was run?
Answer: 11 nM

Question: CC(C)(C)Nc1c(-c2cnc(C#Cc3ccccc3)s2)nc2cnccn12 [Example 146, N-tert-butyl-2-(2-(phenylethynyl)thiazol-5-yl)imidazo[1,2-a]pyrazin-3-amine] was tested. Which IC50 did it give?
Answer: 35 nM

Question: For CC(C)(C)Nc1c(-c2ccc(C#Cc3cncc(C#N)c3)s2)nc2cnccn12 [Example 172, 5-((5-(3-(tert-butylamino)imidazo[1,2-a]pyrazin-2-yl)thiophen-2-yl)ethynyl)nicotinonitrile hydrochloride], which IC50 is on record?
Answer: 36 nM

Question: Which IC50 does the source give for Cc1cc(-c2nc3cnccn3c2NC(C)(C)C)sc1C#Cc1ccccn1 [Example 164, N-tert-butyl-2-(4-methyl-5-(pyridin-2-ylethynyl)thiophen-2-yl)imidazo[1,2-a]pyrazin-3-amine hydrochloride] here?
Answer: 54 nM

Question: With CC(C)(C)Nc1c(-c2ccc(C#Cc3cccc(N)n3)s2)nc2cnccn12 [Example 136, 2-(5-((6-aminopyridin-2-yl)ethynyl)thiophen-2-yl)-N-tert-butylimidazo[1,2-a]pyrazin-3-amine hydrochloride] as the compound, how does the IC50 read?
Answer: 13800 nM

Question: CC(C)(C)Nc1c(-c2ccc(C#Cc3ccccc3O)s2)nc2cnccn12 [Example 153, 2-((5-(3-(tert-butylamino)imidazo[1,2-a]pyrazin-2-yl)thiophen-2-yl)ethynyl)phenol] was tested. Which IC50 did it give?
Answer: 2990 nM

Question: Which IC50 does the source give for Cn1cncc1C#Cc1ccc(-c2nc3ccccn3c2NC(C)(C)C)s1 [Example 337, tert-butyl-{2-[5-(3-methyl-3H-imidazol-4-ylethynyl)-thiophen-2-yl]-imidazo[1,2-a]pyridin-3-yl}-amine hydrochloride] here?
Answer: 6260 nM

Question: How did the IC50 turn out when CC(C)(C)Nc1c(-c2ccc(C#Cc3ccccc3)s2)nc2c(C(=O)O)nccn12 [Example 120, 3-(tert-butylamino)-2-(5-(phenylethynyl)thiophen-2-yl)imidazo[1,2-a]pyrazine-8-carboxylic acid] was run?
Answer: 3630 nM
